The text below walks through data of patent US20080161340A1, “Tetrahydroquinilinones, tetrahydronaphthyridones and derivatives thereof” (priority 2006, published 2008).

Type in all cases: cell-based
One experiment deals with T1, hCB2 (Homo sapiens, UniProt P34972).
T1 construct: host or cells: CHO-K1
The experiment is described as follows: cAMP assay (LANCE TR-FRET) in CHO-K1 cells stably expressing hCB2, agonist/inverse agonist. The following applies: intracellular cAMP, CHO-K1 hCB2 cells prestimulated with NKH-477; + agonist, − inverse agonist. The method, then: (§1) The ability of compounds to act as agonists or inverse agonists at human CB2 and CB1 receptors (hCB2, hCB1, respectively) was determined by measuring changes in intracellular cAMP levels. Chinese Hamster Ovary (CHO-K1) cell lines stably expressing hCB2 (Genebank: X74328) or hCB1 (Genebank: X54937) were purchased from Euroscreen (Gosselies, Belgium).
(§2) Cell lines were grown in suspension in EX-CELL 302 CHO Serum-free medium (Sigma, cat #14324C) supplemented with 1% Fetal Bovine Serum, glutamine and non-essential amino-acids under 0.4 mg/mL G418 selection.
(§3) Receptor mediated responses were determined by measuring changes in intracellular cAMP using LANCE cAMP detection kit (cat #AD0264, PerkinElmer, Wellesley, Mass.) based on time-resolved fluorescence resonance energy transfer (TR-FRET). Changes in cAMP were determined in cells pre-incubated with IBMX (isobutyl methylxanthine) and prestimulated with NKH-477 (a water soluble forskolin derivative, cat #1603, Tocris, Ellisville, Mo.) to increase basal cAMP levels as detailed below.
(§4) On the day of the experiment, cells were spun at low speed for 5 min at room temperature. The supernatant was removed and cells were resuspended in stimulation buffer (Hanks Buffered Salt Solution/5 mM HEPES, containing 0.5 mM IBMX (cat #17018, Sigma) and 0.02% BSA (PerkinElmer, cat #CR84-100)). Cell clumps were removed by filtering through cell strainer 40 μm (BD Falcon, Discovery Labware, Bedford, Mass.) and diluted to 2×10^5 cells/mL. Antibody supplied with the LANCE cAMP immunoassay kit was then added according to the manufacturer's instructions. An aliquot of cells was taken for un-induced controls. To the remaining cells was added NKH-477 (a water soluble forskolin derivative, Tocris cat #1603) to a final concentration of 2-8 μM. Cells were then incubated for 30 min at room temperature prior to adding to Proxiplates containing test compounds (final DMSO concentration was less than 0.5%) with a Multidrop bulk dispenser, followed by a sixty minute incubation at room temperature. The response was stopped by addition of the detection mix supplied with the LANCE kit.
(§5) The reagents were allowed to equilibrate for three hours prior to reading on an Envision multi-mode detector (PerkinElmer). TR-FRET was measured using a 330-380 nm excitation filter, a 665 nm emission filter, dichroic mirror 380 nm and Z=1 mm.
(§6) Cyclic AMP concentrations in each well were back-calculated from a cAMP standard curve run concurrently during each assay. Each plate contained 16 wells of forskolin stimulated cells and 16 wells of forskolin plus CP55,940-treated. CP55,940-treated cells were treated with CP55,940 (Tocris cat. # 0949) at 1 μm and the maximal response was used as the full range (100%) standard. WIN55,212 (Tocris cat. # 1038) was used as an internal standard. Concentrations of cAMP were expressed as a percent of the difference of these two groups of wells. Concentration-response data including ECso (the concentration of compound producing 50% of the maximal response) and intrinsic activity (the percent maximal activation compared to full activation by CP55,940) were determined using a four-parameter non-linear regression algorithm (Xlfit equation 251, IDBS).

Another experiment addresses T2, rCB2 (Rattus norvegicus, UniProt Q9QZN9).
T2 sequence (Q9QZN9 1-360): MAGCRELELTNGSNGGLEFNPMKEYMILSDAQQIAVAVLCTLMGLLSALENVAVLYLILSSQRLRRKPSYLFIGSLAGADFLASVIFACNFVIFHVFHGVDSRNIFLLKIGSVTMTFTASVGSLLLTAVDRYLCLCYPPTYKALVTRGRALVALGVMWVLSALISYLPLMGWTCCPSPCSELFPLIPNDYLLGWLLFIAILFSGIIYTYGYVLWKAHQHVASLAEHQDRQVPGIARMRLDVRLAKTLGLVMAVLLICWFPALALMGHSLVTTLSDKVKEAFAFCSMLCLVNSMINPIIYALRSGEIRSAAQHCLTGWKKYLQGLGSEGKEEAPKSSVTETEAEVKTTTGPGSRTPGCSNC
The experiment is described as follows: cAMP assay, rCB2 in Table 7, agonist/inverse agonist. The following applies: intracellular cAMP; + agonist, − inverse agonist. The method, then:
as §3, §4, §5, §6
A general note: Cyclic AMP is a second messenger, typically raised through Gs and lowered through Gi signalling.

The target of a further experiment is T3, hCB1 (Homo sapiens, UniProt P21554).
T3 construct: host or cells: CHO-K1
Kind of experiment: cAMP assay (LANCE TR-FRET) in CHO-K1 cells stably expressing hCB1, agonist/inverse agonist. The note with it: intracellular cAMP, CHO-K1 hCB1 cells prestimulated with NKH-477, + agonist, − inverse agonist; for EC50: read-out: hCB1 EC50 class. The method, then: as §1, §2, §3, §4, §5, §6

T3 sequence (P21554 whole entry): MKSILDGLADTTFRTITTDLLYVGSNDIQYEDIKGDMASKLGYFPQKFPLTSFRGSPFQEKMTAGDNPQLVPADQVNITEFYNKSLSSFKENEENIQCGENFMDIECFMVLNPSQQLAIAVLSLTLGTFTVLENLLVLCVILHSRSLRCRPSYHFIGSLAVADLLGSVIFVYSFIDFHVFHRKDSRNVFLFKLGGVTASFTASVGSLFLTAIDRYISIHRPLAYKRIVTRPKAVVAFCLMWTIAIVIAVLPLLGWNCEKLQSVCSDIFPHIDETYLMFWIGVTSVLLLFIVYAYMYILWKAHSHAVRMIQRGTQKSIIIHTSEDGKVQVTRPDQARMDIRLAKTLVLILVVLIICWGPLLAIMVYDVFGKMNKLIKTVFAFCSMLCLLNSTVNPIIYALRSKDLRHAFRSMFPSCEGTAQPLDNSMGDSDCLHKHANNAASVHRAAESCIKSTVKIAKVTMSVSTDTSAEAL
T1 sequence (P34972 whole entry): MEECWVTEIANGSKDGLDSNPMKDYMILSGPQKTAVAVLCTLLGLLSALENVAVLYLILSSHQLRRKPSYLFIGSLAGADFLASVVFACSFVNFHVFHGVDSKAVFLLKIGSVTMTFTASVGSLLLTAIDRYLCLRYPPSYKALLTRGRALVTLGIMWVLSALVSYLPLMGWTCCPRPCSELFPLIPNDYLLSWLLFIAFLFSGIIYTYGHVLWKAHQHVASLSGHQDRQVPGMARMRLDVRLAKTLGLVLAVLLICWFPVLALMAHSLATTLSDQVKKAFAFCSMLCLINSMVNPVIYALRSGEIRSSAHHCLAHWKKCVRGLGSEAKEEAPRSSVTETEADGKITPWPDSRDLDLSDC

With `COc1ccncc1-c1cc2c(n(CC3CCC3)c1=O)CCCC2` [Compound 13, 1-(cyclobutylmethyl)-3-(4-methoxypyridin-3-yl)-5,6,7,8-tetrahydroquinolin-2(1H)-one], the “hCB2 EC50 class” value on hCB2 was “+B”.

As usually defined, the EC50 is the concentration that produces a half-maximal response. For the molecule `O=c1c(-c2cn[nH]c2)cc2c(n1CC1CCC1)CCCC2` [Compound 28, 1-(cyclobutylmethyl)-3-(1H-pyrazol-4-yl)-5,6,7,8-tetrahydroquinolin-2(1H)-one], the “rCB2 EC50 class” value on rCB2 is “−C”. The EC50 on hCB1 is greater than 10 µM.

Take `O=c1c(-c2ccc(C(F)(F)F)cc2)cc2c(n1CC1CCC1)CCNC2` [Compound 39, 3-(4-(trifluoromethyl)phenyl)-1-(cyclobutylmethyl)-5,6,7,8-tetrahydro-1,6-naphthyridin-2(1H)-one]: the “rCB2 EC50 class” value on rCB2 is reported as “+C”. Also, the “hCB2 EC50 class” value on hCB2 was “+C”. Besides, the EC50 at hCB1 was greater than 10 µM.

Turning to `CS(=O)(=O)N1CCc2c(cc(Cc3ccccc3F)c(=O)n2CC2CCC2)C1` [Compound 58, 1-(cyclobutylmethyl)-3-(2-fluorobenzyl)-6-(methylsulfonyl)-5,6,7,8-tetrahydro-1,6-naphthyridin-2(1H)-one], at rCB2, the “rCB2 EC50 class” value is “+A”. Also, at hCB2, the “hCB2 EC50 class” value is reported as “+A”. For the same molecule, on hCB1, the “hCB1 EC50 class” value is “+B”.

As to `O=c1c(-c2cccc(C(F)(F)F)c2)cc2c(n1CC1CCCCC1)CCCC2` [Compound 24, 1-(cyclohexylmethyl)-3-(3-(trifluoromethyl)phenyl)-5,6,7,8-tetrahydroquinolin-2(1H)-one], the “hCB2 EC50 class” value on hCB2 is “+A”. At hCB1, the “hCB1 EC50 class” value was “+B”.

Take `O=c1c(-c2ccccc2)cc2c(n1CC1CC1)CCCC2` [Compound 2, 1-(cyclopropylmethyl)-3-phenyl-5,6,7,8-tetrahydroquinolin-2(1H)-one]: the “rCB2 EC50 class” value at rCB2 is recorded as “+C”. The “hCB2 EC50 class” value at hCB2 was “+B”. Further, the 50% effective concentration (EC50) on hCB1 was greater than 10 µM.

For `COc1cccc(-c2cc3c(n(CC4CCC4)c2=O)CCCC3)c1` [Compound 16, 1-(cyclobutylmethyl)-3-(3-methoxyphenyl)-5,6,7,8-tetrahydroquinolin-2(1H)-one], the “rCB2 EC50 class” value on rCB2 is on record as “+B”. Besides, the “hCB2 EC50 class” value at hCB2 is given as “+B”. For the same molecule, the concentration giving a half-maximal response (EC50) at hCB1 is greater than 10 µM.

On to `CCS(=O)(=O)N1CCc2c(cc(-c3cccc(Cl)c3)c(=O)n2CC2CC2)C1` [Compound 49, 3-(3-chlorophenyl)-1-(cyclopropylmethyl)-6-(ethylsulfonyl)-5,6,7,8-tetrahydro-1,6-naphthyridin-2(1H)-one], for which the “rCB2 EC50 class” value at rCB2 is on record as “+B”. On hCB2, the “hCB2 EC50 class” value is given as “+B”. Further, the 50% effective concentration (EC50) at hCB1 was greater than 10 µM.

Turning to `Cc1noc(C)c1-c1cc2c(n(CC3CCC3)c1=O)CCCC2` [Compound 27, 1-(cyclobutylmethyl)-3-(3,5-dimethylisoxazol-4-yl)-5,6,7,8-tetrahydroquinolin-2(1H)-one], at hCB2, the “hCB2 EC50 class” value is reported as “+B”.

For `O=c1c(-c2cccnc2)cc2c(n1CC1CCC1)CCNC2` [Compound 40, 1-(cyclobutylmethyl)-3-(pyridin-3-yl)-5,6,7,8-tetrahydro-1,6-naphthyridin-2(1H)-one], the “rCB2 EC50 class” value at rCB2 was “+B”. For the same molecule, on hCB2, the “hCB2 EC50 class” value is given as “+C”. The 50% effective concentration (EC50) on hCB1 was greater than 10 µM.

`O=c1c(Cc2ccccc2F)cc2c(n1CC1CCC1)CCCC2` [Compound 31, 1-(cyclobutylmethyl)-3-(2-fluorobenzyl)-5,6,7,8-tetrahydroquinolin-2(1H)-one]: the “rCB2 EC50 class” value on rCB2 is “+A”. The “hCB2 EC50 class” value at hCB2 was “+A”. In addition, the half-maximal effective concentration (EC50) on hCB1 is greater than 10 µM.

As to `O=c1c(-c2cccc(F)c2)cc2c(n1CC1CC1)CCCC2` [Compound 4, 1-(cyclopropylmethyl)-3-(3-fluorophenyl)-5,6,7,8-tetrahydroquinolin-2(1H)-one], on rCB2, the “rCB2 EC50 class” value is reported as “+C”. The “hCB1 EC50 class” value at hCB1 is recorded as “+C”.

Consider `CC(C)C(=O)N1CCc2c(cc(-c3cccc(Cl)c3)c(=O)n2CC2CC2)C1` [Compound 51, 3-(3-chlorophenyl)-1-(cyclopropylmethyl)-6-isobutyryl-5,6,7,8-tetrahydro-1,6-naphthyridin-2(1H)-one], for which the “hCB2 EC50 class” value at hCB2 is “+B”.

As for `O=c1c(-c2ccc(C(F)(F)F)cc2)cc2c(n1CC1CCC1)CCN(S(=O)(=O)c1cccc(F)c1)C2` [Compound 57, 1-(cyclobutylmethyl)-6-(3-fluorophenylsulfonyl)-3-(4-(trifluoromethyl)phenyl)-5,6,7,8-tetrahydro-1,6-naphthyridin-2(1H)-one], the “rCB2 EC50 class” value on rCB2 is listed as “−B”.

Turning to `CC(C)(C)OC(=O)N1CCc2c(cc(-c3cccnc3)c(=O)n2CC2CCC2)C1` [Compound 37, tert-butyl 1-(cyclobutylmethyl)-2-oxo-3-(pyridin-3-yl)-1,2,7,8-tetrahydro-1,6-naphthyridine-6(5H)-carboxylate], the “rCB2 EC50 class” value on rCB2 is recorded as “−C”.

As for `COc1cccc(-c2cc3c(n(CC4CCC4)c2=O)CCN(C(C)=O)C3)c1` [Compound 55, 6-acetyl-1-(cyclobutylmethyl)-3-(3-methoxyphenyl)-5,6,7,8-tetrahydro-1,6-naphthyridin-2(1H)-one], the “rCB2 EC50 class” value at rCB2 is recorded as “−C”. The “hCB1 EC50 class” value at hCB1 is reported as “−B”.

`O=c1c(-c2ccc(C(F)(F)F)cc2)cc2c(n1CC1CCC1)CCN(S(=O)(=O)c1ccccc1)C2` [Compound 56, 1-(cyclobutylmethyl)-6-(phenylsulfonyl)-3-(4-(trifluoromethyl)phenyl)-5,6,7,8-tetrahydro-1,6-naphthyridin-2(1H)-one]: the “rCB2 EC50 class” value at rCB2 is “−C”. Moreover, the “hCB1 EC50 class” value at hCB1 is “−B”.

Regarding `O=C(c1ccno1)N1CCc2c(cc(-c3ccc(C(F)(F)F)cc3)c(=O)n2CC2CCC2)C1` [Compound 45, 1-(cyclobutylmethyl)-6-(isoxazole-5-carbonyl)-3-(4-(trifluoromethyl)phenyl)-5,6,7,8-tetrahydro-1,6-naphthyridin-2(1H)-one], the “rCB2 EC50 class” value on rCB2 is “−C”. Also, the concentration for a half-maximal effect (EC50) at hCB1 is greater than 10 µM.

Take `CC(C)(C)OC(=O)N1CCc2c(cc(-c3cccc(Cl)c3)c(=O)n2CC2CCC2)C1` [Compound 35, tert-butyl 3-(3-chlorophenyl)-1-(cyclobutylmethyl)-2-oxo-1,2,7,8-tetrahydro-1,6-naphthyridine-6(5H)-carboxylate]: the “rCB2 EC50 class” value on rCB2 is reported as “−B”. The EC50 at hCB1 is greater than 10 µM.

On to `O=c1c(C2=NN(c3ccccc3)C(c3ccco3)C2)cc2c(n1CC1CCC1)CCCC2` (stereo not drawn) [Compound 21, 1-(cyclobutylmethyl)-3-(5-(furan-2-yl)-1-phenyl-4,5-dihydro-1H-pyrazol-3-yl)-5,6,7,8-tetrahydroquinolin-2(1H)-one], for which the “hCB2 EC50 class” value on hCB2 is “+C”.

Take `CC(C)(C)OC(=O)N1CCc2c(cc(-c3ccc(C(F)(F)F)cc3)c(=O)n2CC2CCC2)C1` [Compound 36, tert-butyl 3-(4-(trifluoromethyl)phenyl)-1-(cyclobutylmethyl)-2-oxo-1,2,7,8-tetrahydro-1,6-naphthyridine-6(5H)-carboxylate]: the “rCB2 EC50 class” value at rCB2 is reported as “−C”.
